What all share (assay): NCI anticancer screen, dose series, 48 h
The subject of experiment [1] is HCT-15.
Experiment [2] has as its system IGROV-1.
Experiment [3] relates to CAKI-1.
For experiment [4], the system named is RPMI-8226.
The subject of experiment [5] is Malme-3M.
Experiment [6] relates to HCT-116.
Experiment [7] deals with OVCAR-5.
Experiment [8] has as its system SW-620.
Experiment [9] has as its system A498.
The subject of experiment [10] is HOP-62.
Experiment [11] relates to SF-268.
The test system of experiment [12] is UO-31.
In experiment [13] the test system is NCI-H226.
The test system of experiment [14] is KM-20L2.
Experiment [15] has as its system HL-60.
Experiment [16] concerns K562.
Experiment [17] relates to SK-MEL-28.
The test system of experiment [18] is LOX IMVI.
In experiment [19] the test system is UACC-62.
The test system of experiment [20] is SK-MEL-2.

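Briefly, cells in 96-well plates were exposed to five compound concentrations for 48 h, and endpoints were estimated by linear interpolation. GI50 marks 50% less growth.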 Active and inactive are the calls of the source. Rule as the data show it: active = GI50 up to about 1.1 µM and inactive = higher.

In the case of `CN(C)CCNC(=O)c1cccc2c1C(=O)c1ccccc1C2=O`, the GI50 in [1] was 30.7 µM; in [2], 26.4 µM (inactive); in experiment [3], 32.4 µM (inactive); in experiment [4], 50.9 µM (inactive); in experiment [5] it was 13.1 µM (inactive); in [6], 25.1 µM (inactive). Besides, the GI50 in [7] was 61.5 µM (inactive); in [8], 28.9 µM (inactive); in [9], > 100 µM (inactive); in experiment [10], > 31.6 µM (inactive); in experiment [11], > 100 µM (inactive); in [12] it was 54 µM (inactive). For the same compound, the GI50 in [13] is > 94 µM (inactive); in [14] it was 28 µM (inactive); in [15], 20.6 µM (inactive); in experiment [16] it was 19.1 µM (inactive); in [17] it was 45.3 µM (inactive); in experiment [18] it was 25.6 µM (inactive). Also, the GI50 is 21.4 µM (inactive) in [19] and > 37.3 µM (inactive) in experiment [20].
As for `CCC(C)COC(=O)c1ccc(/N=C\c2ccc(/C=N/c3ccc(C(=O)OCC(C)CC)cc3)cc2)cc1` (stereo not given), the GI50 was over 100 µM in experiment [1]; > 100 µM (inactive) in experiment [2]; > 100 µM (inactive) in [3]; > 100 µM (inactive) in [4]; > 100 µM (inactive) in [5]; > 100 µM (inactive) in experiment [6]. For the same compound, the GI50 was > 100 µM (inactive) in experiment [7]; > 100 µM (inactive) in experiment [8]; > 100 µM (inactive) in experiment [9]; > 100 µM (inactive) in [10]; > 100 µM (inactive) in experiment [11]; 10.5 µM (inactive) in [12]. For the same compound, the GI50 in [13], in experiment [14], in experiment [15], in [16], in experiment [17] and in [18] was > 100 µM (inactive) in each case. Moreover, the GI50 in [19] and in experiment [20] was > 100 µM (inactive) in each case.
Regarding `Cc1ccccc1OCC(COC(=O)Nc1ccccc1)OC(=O)Nc1ccccc1` (stereo not given), the GI50 was over 100 µM in experiment [1]; > 100 µM (inactive) in experiment [2]; 26.5 µM (inactive) in experiment [3]; 1.81 µM (inactive) in experiment [4]; 30.9 µM (inactive) in experiment [5]; 15.8 µM (inactive) in experiment [6]. The GI50 in experiment [7] is > 100 µM (inactive); in experiment [8] it was 52.8 µM (inactive); in experiment [9], 61.2 µM (inactive); in [10], 31.9 µM (inactive); in experiment [11], 50.9 µM (inactive); in experiment [12], 34.6 µM (inactive). In addition, the GI50 in experiment [13] was 25.8 µM (inactive); in [14], 52.2 µM (inactive); in experiment [15], 4.28 µM (inactive); in experiment [16], 4.05 µM (inactive); in [17] it was > 100 µM (inactive); in experiment [18], 15.1 µM (inactive). For the same compound, the GI50 in [19] is 23.3 µM (inactive); in experiment [20], 22 µM (inactive).

Values taken from ChEMBL document CHEMBL1201862, “PubChem BioAssay data set” (2004).
